From US7056734B1, “Differentiation of non-insulin producing cells into insulin producing cells by GLP-1 or exendin-4 and uses thereof” (The United States of America as represented by the …, priority 1998, dated 2006)

Tests used:
[1] = test system: insulin mRNA; test: Slot-blot quantitation of insulin mRNA in pancreata and islets; assay type: in vivo, rat; conditions: young and old animals, 48 hrs infusion, P<0.01
Description: (§1) The rats were implanted with an Alzet micro-osmotic pump (Alza Corp., Palo Alto, Calif.) in the interscapular region for 48 hrs. […] Control animals received normal saline in their pumps and received their infusion for the same length of time.
(§2) After an overnight fast, animals were sacrificed, pancreata were removed and frozen in liquid nitrogen as quickly as possible. RNA was extracted by homogenization in guanidinium isothiocyanate, followed by ultracentrifugation on a 5.7 M cesium chloride cushion (Glisin et al., 1974; Chigwin et al., 1979). Poly-A RNA was then prepared from total RNA by affinity chromatography using oligo (dT) columns (Biolabs INC, Beverly, Mass.). RNA was quantified by spectrophotometric analysis at […]. Slot-blot analysis using poly-A RNA was used for quantitation of mRNA levels of glucokinase, which is the main glucose sensor of the beta cell (Matschinsky, 1990), the three hexokinases, GLUT2, the major glucose transporter of the beta cell (Mueckler, 1990), and insulin. Four micrograms of poly-A RNA were diluted in 50 μl TE buffer (Tris-HCL 10 mM, EDTA 1 mM, pH 7.4), 20 μl of 37% formaldehyde and 20 μl of 10× SSC. Samples were incubated at 60° C. for 15 min and then diluted with 1 ml of ice-cold 10× SSC (1×SCC=0.15 M NaCl+0.015 sodium citrate). […]

[2] = test system: glucokinase mRNA; test: Slot-blot quantitation of glucokinase mRNA in pancreata and islets; assay type: in vivo, rat; conditions: young (P<0.05), much more so in old animals (P<0.001)
Description: as §1, §2

[3] = test system: AR42J cells; test: Protein tyrosine phosphorylation in AR42J cells; assay type: cell-based, rat; conditions: 5 min treatment
Protocol: Tyrosine Phosphorylation Studies. […] Then the medium was removed and fresh KRBB was added, followed by placing the cell on a 37° C. hot plate for 5 min. After addition of various reagents (see FIG. 24) for 5 min the reaction was terminated by submersion of the dishes in liquid nitrogen. The frozen cells were scraped and lysed in RIPA buffer. […] The blots were developed using the ECL chemiluminescence detection system (Amersham).

[4] = Biological half-life; assay type: in vivo; conditions: compared with several minutes for GLP-1
[5] = test system: diabetic mice; test: Five-day daily ip exendin-4 in 14 weeks old diabetic mice; assay type: in vivo, mouse; conditions: 24 nmol/kg ip daily
Protocol: In another group of eight diabetic mice 14 weeks old we gave 24 nmol/kg exendin-4 ip daily and NaCl ip daily for five days to four each of the group.
(§3) Assays. Plasma glucose was measured by the glucose oxidase method (Wang et al., 1997). Insulin was measured by RIA as previously described (See Example 1). Hb A1c was assayed using a BIO-RAD (Herculas Calif.) DiaSTAT machine which uses low pressure cation exchange chromatography in conjunction with gradient elution to separate hemoglobin subtypes and variants from hemolyzed blood. The separated hemoglobin fractions were monitored by means of absorption of light at 415 nm.

[6] = test system: diabetic mice (C57BLKS/J-Lepr^db/Lepr^db); test: Daily ip exendin-4 in diabetic mice; assay type: in vivo, mouse
Description: Animals. Four month old Wistar rats from the Wistar colony in the NIA (Baltimore, Md.) were used for the acute experiments of the effects of exendin-4 and GLP-1 (see Example 1). They had been maintained on standard lab chow and fed ad libitum. For the long-term experiments, diabetic mice (C57BLKS/J-Lepr^db/Lepr^db) lacking the leptin receptor, and their non-diabetic littermates were purchased at 4 weeks of age from Jackson Laboratories (Bar Harbor, Me.). They were housed two per cage and also were fed ad libitum. The same mice were caged together for the duration of the study. Wistar rats are caged on wire while the bedding for the mice was a paper based product, “Carefresh” (Absorption Co., Bellingham, Wash.).
Subsequently, whole blood glucose levels, taken from a retro-orbital sinus, were determined in the mice using a Glucometer Elite (Bayer). This regimen was continued for 12–13 weeks. […] Animals were weighed weekly. After one week of the regimen blood samples were again taken from a retro-orbital sinus for determination of insulin and glucose levels. At the end of the regimen, fasting blood samples were obtained for glucose and insulin levels and whole blood containing EDTA was assayed for hemoglobin A1c (Hb A1c) on the same day from the four groups.
as §3

Compound | insulin mRNA vs controls [1] | glucokinase mRNA levels [2] | effect on protein tyrosine phosphorylation [3] | half-life [4] | blood sugars after five days ([5]; NaCl-treated 640±37) [mg/dL] | insulin levels after five days ([5]; NaCl-treated 1,072±54) | blood sugar lowering at lower concentration compared with larger amount ([6]; 1 nmol/kg ip for one week, diabetic mice) | weight of the animal for the first 3–4 days of injection ([6]; back to same as NaCl-treated by the seventh day) | cage bedding 24 hours after changing vs NaCl-treated diabetic animals (urination) ([6]; diabetic mice, 9 weeks treatment) | fasting glucose levels ([6]; diabetic mice, 12–13 weeks, NaCl 517±59, p<0.005) [mg/dL] | fasting insulin levels ([6]; diabetic mice, 12–13 weeks, NaCl 707.2±169.7, p<0.02) | Hb A1c ([6]; diabetic mice, daily ip for 12–13 weeks, NaCl-treated 8.8%, p<0.0001) [%] | fasting glucose level after one week of treatment ([6]; diabetic mice, daily ip, NaCl-treated 238±51, p<0.002) [mg/dL] | deaths just after receiving exendin-4 ([6]; diabetic mice, day fourteen) | fasting insulin levels after one week vs NaCl ([6]; diabetic mice, p<0.002) | body weight at 13–14 weeks of treatment ([6]; diabetic mice, NaCl-treated 38.7 g) [g] | effects of the daily injections on behavior ([6]; long-term daily ip)
CC[C@H](C)[C@H](NC(=O)[C@H](Cc1ccccc1)NC(=O)[C@H](CCC(=O)O)NC(=O)[C@H](CCCCN)NC(=O)[C@H](C)NC(=O)[C@H](C)NC(=O)[C@H](CCC(N)=O)NC(=O)CNC(=O)[C@H](CCC(=O)O)NC(=O)[C@H](CC(C)C)NC(=O)[C@H](Cc1ccc(O)cc1)NC(=O)[C@H](CO)NC(=O)[C@H](CO)NC(=O)[C@@H](NC(=O)[C@H](CC(=O)O)NC(=O)[C@H](CO)NC(=O)[C@@H](NC(=O)[C@H](Cc1ccccc1)NC(=O)[C@@H](NC(=O)CNC(=O)[C@H](CCC(=O)O)NC(=O)[C@H](C)NC(=O)[C@@H](N)Cc1c[nH]cn1)[C@@H](C)O)[C@@H](C)O)C(C)C)C(=O)N[C@@H](C)C(=O)N[C@@H](Cc1c[nH]c2ccccc12)C(=O)N[C@@H](CC(C)C)C(=O)N[C@H](C(=O)N[C@@H](CCCCN)C(=O)NCC(=O)N[C@@H](CCCNC(=N)N)C(N)=O)C(C)C [GLP-1] | increased | significantly increased | did not have any effect | – | – | – | – | – | – | – | – | – | – | – | – | – | –
exendin-4 | – | – | – | on the order of hours | 355 ± 21 | 6,904±705 pmol/l | just as effective | drops | obviously drier | 278.7 ± 30.0 | 4,600±1,114 pmol/l | 4.7 | 90 ± 11 | one of the diabetic mice died | higher | 46.7 | no untoward effects
